In patent publication US20180153860A1, “METHODS OF DOSE ADMINISTRATION FOR TREATING OR PREVENTING COGNITIVE IMPAIRMENT USING INDANE ACETIC ACID DERIVATIVES” (T3D Therapeutics, Inc., priority 2016, published 2018):

Experiments:
[1] = system: mild to moderate severity Alzheimer's patients (MMSE=14-26); assay: ADAS-cog11 score change in Alzheimer's patients after 14-day treatment; assay type: in vivo, human
Method: ADAS-cog11 score change from day 1 to day 14 (D1-D14), the end of 2-week treatment is compared to the ADAS-cog 1 from day 1 to day 21 (D1-D21), 7-days post treatment follow-up. With ADAS-cog 1 test scoring a greater negative score denotes greater cognitive improvement. Drug treatment of mild to moderate severity Alzheimer's patients (MMSE=14-26) with T3D-959 was for 14 days q.d. at 3 mg, 10 mg, 30 mg or 90 mg (n=number of subjects evaluable at each dose).

[2] = system: intracerebral (i.c.) Streptozotocin (STZ) rat model of Alzheimer's disease; assay: Intracerebral Streptozotocin rat model of Alzheimer's disease, Morris Water Maze testing; assay type: in vivo, Long Evans rats; conditions: 0.25 mg/kg oral gavage every other day for 14 days; control and STZ rats; tested 11 days post-dosing
Method: The experimental rat model of Alzheimer's disease used in Table 7 involves intracerebral (i.c.) treatment with Streptozotocin (STZ), to cause brain metabolic dysfunction and insulin resistance as occurs in human sporadic Alzheimer' disease, with minimal or no systemic side-effects. Long Evans 4-week old male and female rats (8-12/group) were anesthetized by intraperitoneal (i.p.) injection of ketamine (100 mg/kg) plus xylazine (10 mg/kg). After shaving and cleaning (betadine x2 followed by 70% ethanol) the scalps, the rats were positioned in a stereotaxic frame and a midline incision was made. With subcutaneous tissue and skeletal muscle separated and retracted with small surgical hooks, the bregma and lambda areas were cleaned with 3% H2O2 soaked cotton swabs. […]
T3D-959 administration (0.25 mg/kg) to control and STZ rats was by oral gavage every other day for a period of 14-days. […] The latency to locate the platform was measured. Spatial memory and orientation were assessed by requiring the rat to locate the hidden platform from different entry points in the maze. […]
Data were analyzed by first calculating area under curves for each set of 3 trials, then averaging the AUC results within-group. […] Data were analyzed by 1-way ANOVA with Fisher post-tests. […]

## CCc1oc(-c2ccc(OC)cc2)nc1CCOc1ccc2c(c1)CC[C@H]2CC(=O)[O-].[Na+] [Example T3D-959]
[1]; 10 mg cohort, 14 days q.d.
  subjects who exhibited an improved ADAS-cog11 test score: 5 of 9
[1]; 14 days q.d. at 3 mg, 10 mg, 30 mg or 90 mg, D21 = 7-days post treatment follow-up
  ADAS-cog11 score change D1-D14 compared to D1-D21: cognitive improvement lasting beyond the end of treatment
[2]
  Morris Water Maze latency to locate the platform (spatial localization and memory, AUC of trials): benefited control as well as STZ-exposed rats
